Values quoted from earlier work as cited in US20090325943A1, “VETERINARY PHARMACEUTICAL COMPOSITIONS FOR THE TREATMENT OF PAIN AND INFLAMMATION” (priority 2006, published 2009).

How the values were obtained:
[1] = dog, regardless of the administration route

COc1cccc(C2(O)CCCCC2CN(C)C)c1 (stereo not shown) [tramadol]
half-life (elimination mainly by the renal route) [1]: approx. 2.5 hours | bond with the plasma proteins (6 animal species): modest | peak plasma concentration (time to peak) (6 animal species): ≤ 2 h | absorption (administered by the i.m. route): almost total
